Results published in ChEMBL document CHEMBL3045142, “Several Antifeedants from Neem Oil,Azadirachta indicaA. Juss., againstReticulitermes speratusKolbe (Isoptera: Rhinotermitidae)” (1992).

Key:
Type in all cases: functional
Reticulitermes speratus [1] = experiment: Antifeedant activity against Reticulitermes speratus assessed as survival at 300 ug/disk after 30 days by no-choice bioassay (reference value: 92.5%); conditions: 720 h
Reticulitermes speratus [2] = experiment: Antifeedant activity against Reticulitermes speratus assessed per disk after 30 days by no-choice bioassay
Reticulitermes speratus [3] = experiment: Antifeedant activity against Reticulitermes speratus assessed as survival at 200 ug/disk after 30 days by no-choice bioassay (reference value: 92.5%); conditions: 720 h
Reticulitermes speratus [4] = experiment: Antifeedant activity against Reticulitermes speratus assessed as survival at 50 ug/disk after 30 days by no-choice bioassay (reference value: 92.5%); conditions: 720 h
Reticulitermes speratus [5] = experiment: Antifeedant activity against Reticulitermes speratus assessed as survival at 100 ug/disk after 30 days by no-choice bioassay (reference value: 92.5%); conditions: 720 h
Reticulitermes speratus [6] = experiment: Antifeedant activity against Reticulitermes speratus assessed as survival at 400 ug/disk after 30 days by no-choice bioassay (reference value: 92.5%); conditions: 720 h
Reticulitermes speratus [7] = experiment: Antifeedant activity against Reticulitermes speratus assessed as antifeedant consumption at 100 ug/disk after 30 days by no-choice bioassay
Reticulitermes speratus [8] = experiment: Antifeedant activity against Reticulitermes speratus assessed as antifeedant consumption at 200 ug/disk after 30 days by no-choice bioassay
Reticulitermes speratus [9] = experiment: Antifeedant activity against Reticulitermes speratus assessed as antifeedant consumption at 300 ug/disk after 30 days by no-choice bioassay
Reticulitermes speratus [10] = experiment: Antifeedant activity against Reticulitermes speratus assessed as survival at 500 ug/disk after 30 days by no-choice bioassay (reference value: 92.5%); conditions: 720 h
Reticulitermes speratus [11] = experiment: Antifeedant activity against Reticulitermes speratus assessed as antifeedant consumption at 500 ug/disk after 30 days by no-choice bioassay
Reticulitermes speratus [12] = experiment: Antifeedant activity against Reticulitermes speratus assessed as antifeedant consumption at 400 ug/disk after 30 days by no-choice bioassay
Reticulitermes speratus [13] = experiment: Antifeedant activity against Reticulitermes speratus assessed as survival at 75 ug/disk after 30 days by no-choice bioassay (reference value: 92.5%); conditions: 720 h
Reticulitermes speratus [14] = experiment: Antifeedant activity against Reticulitermes speratus assessed as antifeedant consumption at 50 ug/disk after 30 days by no-choice bioassay
Reticulitermes speratus [15] = experiment: Antifeedant activity against Reticulitermes speratus assessed as antifeedant consumption at 75 ug/disk after 30 days by no-choice bioassay
Reticulitermes speratus [16] = experiment: Antifeedant activity against Reticulitermes speratus assessed as antifeedant consumption at 150 ug/disk after 30 days by no-choice bioassay
Reticulitermes speratus [17] = experiment: Antifeedant activity against Reticulitermes speratus assessed as survival at 125 ug/disk after 30 days by no-choice bioassay (reference value: 92.5%); conditions: 720 h
Reticulitermes speratus [18] = experiment: Antifeedant activity against Reticulitermes speratus assessed as reduction in feeding at 100 to 200 ug/disk after 30 days by no-choice bioassay relative to vehicle-control; parameters: scale not given: the % may be the effect or the level left
Reticulitermes speratus [19] = experiment: Antifeedant activity against Reticulitermes speratus assessed as antifeedant consumption at 125 ug/disk after 30 days by no-choice bioassay
Reticulitermes speratus [20] = experiment: Antifeedant activity against Reticulitermes speratus assessed as antifeedant consumption at 25 ug/disk after 30 days by no-choice bioassay
Reticulitermes speratus [21] = experiment: Antifeedant activity against Reticulitermes speratus assessed as survival at 150 ug/disk after 30 days by no-choice bioassay (reference value: 92.5%); conditions: 720 h
Reticulitermes speratus [22] = experiment: Antifeedant activity against Reticulitermes speratus assessed as survival at 25 ug/disk after 30 days by no-choice bioassay (reference value: 92.5%); conditions: 720 h
Reticulitermes speratus [23] = experiment: Antifeedant activity against Reticulitermes speratus assessed as survival at 5 ug/disk after 30 days by no-choice bioassay (reference value: 92.5%); conditions: 720 h
Reticulitermes speratus [24] = experiment: Antifeedant activity against Reticulitermes speratus assessed as antifeedant consumption at 7.5 ug/disk after 30 days by no-choice bioassay
Reticulitermes speratus [25] = experiment: Antifeedant activity against Reticulitermes speratus assessed as survival at 7.5 ug/disk after 30 days by no-choice bioassay (reference value: 92.5%); conditions: 720 h
Reticulitermes speratus [26] = experiment: Antifeedant activity against Reticulitermes speratus assessed as survival at 10 ug/disk after 30 days by no-choice bioassay (reference value: 92.5%); conditions: 720 h
Reticulitermes speratus [27] = experiment: Antifeedant activity against Reticulitermes speratus assessed as antifeedant consumption at 5 ug/disk after 30 days by no-choice bioassay
Reticulitermes speratus [28] = experiment: Antifeedant activity against Reticulitermes speratus assessed as antifeedant consumption at 10 ug/disk after 30 days by no-choice bioassay
Reticulitermes speratus [29] = experiment: Antifeedant activity against Reticulitermes speratus assessed as reduction in feeding at 50 ug/disk after 30 days by no-choice bioassay relative to vehicle-control; parameters: scale not given: the % may be the effect or the level left

In the case of `COC(=O)C[C@H]1[C@]2(C)C3=C(C)[C@H](c4ccoc4)C[C@H]3O[C@@H]2[C@H](O)[C@@H]2[C@]1(C)C(=O)C=C[C@@]2(C)C(=O)OC` [DEACETYLNIMBIN], the survival at 300 µg/disc (Reticulitermes speratus [1]) is reported as 74%, the PC50 (Reticulitermes speratus [2]) is reported as 280.6 µg and the PC95 (Reticulitermes speratus [2]) is reported as 1581.2 µg. The survival at 200 µg/disc (Reticulitermes speratus [3]) was 78.5%, the survival at 50 µg/disc (Reticulitermes speratus [4]) was 87.5% and the survival at 100 µg/disc (Reticulitermes speratus [5]) was 85%.

`C/C=C(\C)C(=O)O[C@H]1C[C@@H](O)[C@@]2(C)CO[C@H]3[C@H]4O[C@@H]5C[C@@H](c6ccoc6)C(C)=C5[C@@]4(C)[C@H](CC(=O)OC)[C@]1(C)[C@@H]32` [DESACETYL SALANNIN] was tested, and the survival at 400 µg/disc (Reticulitermes speratus [6]) was 44%, the survival at 300 µg/disc (Reticulitermes speratus [1]) was 49% and the PC50 (Reticulitermes speratus [2]) was 55.2 µg. The PC95 (Reticulitermes speratus [2]) was 1373.1 µg, the survival at 200 µg/disc (Reticulitermes speratus [3]) was 58% and the survival at 100 µg/disc (Reticulitermes speratus [5]) was 72%.

In the case of `CC(=O)O[C@@H]1C[C@H]2C(C)(C)C(=O)C=C[C@]2(C)[C@H]2CC[C@]3(C)C(=CC(=O)[C@H]3c3ccoc3)[C@@]21C` [AZADIRADIONE], the survival at 400 µg/disc (Reticulitermes speratus [6]) is reported as 24.5%, the survival at 300 µg/disc (Reticulitermes speratus [1]) is reported as 39% and the Activity (Reticulitermes speratus [7]) is reported as 55.1 µg. It also gave an Activity (Reticulitermes speratus [8]) of 79.3 µg, a PC50 (Reticulitermes speratus [2]) of 238.5 µg and a PC95 (Reticulitermes speratus [2]) of 827.5 µg. For the same molecule, the Activity (Reticulitermes speratus [9]) was 62.9 µg, the survival at 200 µg/disc (Reticulitermes speratus [3]) was 65.5% and the survival at 500 µg/disc (Reticulitermes speratus [10]) was 0.5%. The Activity (Reticulitermes speratus [11]) was 2 µg, the Activity (Reticulitermes speratus [12]) was 49.5 µg and the survival at 100 µg/disc (Reticulitermes speratus [5]) was 73%.

In the case of `CC(=O)O[C@@H]1C[C@H]2C(C)(C)C(=O)C=C[C@]2(C)[C@H]2CC[C@@]3(C)[C@H](c4ccoc4)C(=O)[C@H]4O[C@]43[C@@]21C` [EPOXYAZADIRADIONE], the survival at 400 µg/disc (Reticulitermes speratus [6]) is reported as 64%, the survival at 300 µg/disc (Reticulitermes speratus [1]) is reported as 76.5% and the survival at 200 µg/disc (Reticulitermes speratus [3]) is reported as 77%. The survival at 100 µg/disc (Reticulitermes speratus [5]) was 75.5%.

`CC(=O)O[C@@H]1C[C@H]2C(C)(C)C(=O)C=C[C@]2(C)[C@H]2CC[C@@]3(C)[C@H](c4ccoc4)OC(=O)[C@H]4O[C@]43[C@@]21C` [GEDUNIN] was tested, and the survival at 75 µg/disc (Reticulitermes speratus [13]) was 49.3%, the Activity (Reticulitermes speratus [14]) was 9 µg and the Activity (Reticulitermes speratus [15]) was 10.5 µg. For the same molecule, the Activity (Reticulitermes speratus [16]) was 5 µg, the survival at 125 µg/disc (Reticulitermes speratus [17]) was 23.3% and the Activity (Reticulitermes speratus [7]) was 11 µg. The Activity (Reticulitermes speratus [18]) was 80%, the Activity (Reticulitermes speratus [19]) was 6.8 µg and the Activity (Reticulitermes speratus [20]) was 8.5 µg. For the same molecule, the survival at 150 µg/disc (Reticulitermes speratus [21]) was 13.3%, the survival at 25 µg/disc (Reticulitermes speratus [22]) was 82% and the PC50 (Reticulitermes speratus [2]) was 49 µg. It also gave a PC95 (Reticulitermes speratus [2]) of 218.4 µg, a survival at 50 µg/disc (Reticulitermes speratus [4]) of 51.3% and a survival at 100 µg/disc (Reticulitermes speratus [5]) of 39.3%.

In the case of `CC(=O)O[C@@H]1C[C@H]2C(C)(C)C(=O)C=C[C@]2(C)[C@H]2CC[C@]3(C)C(=CC(=O)[C@@H]3c3ccoc3)[C@@]21C` [17-EPIAZADIRADIONE], the survival at 400 µg/disc (Reticulitermes speratus [6]) is reported as 86.5%, the survival at 300 µg/disc (Reticulitermes speratus [1]) is reported as 86.5% and the survival at 200 µg/disc (Reticulitermes speratus [3]) is reported as 85.5%. The survival at 50 µg/disc (Reticulitermes speratus [4]) was 87% and the survival at 100 µg/disc (Reticulitermes speratus [5]) was 85.5%.

`CC1(C)C(=O)C=C[C@]2(C)[C@H]3CC[C@@]4(C)[C@H](c5ccoc5)OC(=O)[C@H]5O[C@]54[C@]3(C)[C@H](O)C[C@@H]12` [DEACETYLGEDUNIN] gave a survival at 5 µg/disc (Reticulitermes speratus [23]) of 91.3%, an Activity (Reticulitermes speratus [24]) of 3.1 µg and an Activity (Reticulitermes speratus [14]) of 4.7 µg. It also gave a survival at 7.5 µg/disc (Reticulitermes speratus [25]) of 87.3%, an Activity (Reticulitermes speratus [7]) of 7.2 µg and an Activity (Reticulitermes speratus [20]) of 4.7 µg. For the same molecule, the survival at 10 µg/disc (Reticulitermes speratus [26]) was 73.3%, the Activity (Reticulitermes speratus [27]) was 2.2 µg and the survival at 25 µg/disc (Reticulitermes speratus [22]) was 45.3%. For the same molecule, the PC50 (Reticulitermes speratus [2]) was 22.5 µg, the PC95 (Reticulitermes speratus [2]) was 113.7 µg and the survival at 50 µg/disc (Reticulitermes speratus [4]) was 20%. For the same molecule, the Activity (Reticulitermes speratus [28]) was 3.2 µg, the survival at 100 µg/disc (Reticulitermes speratus [5]) was 12% and the Activity (Reticulitermes speratus [29]) was 80.38%.

Molecule `CC(=O)O[C@@H]1C[C@H]2C(C)(C)C(=O)C=C[C@]2(C)[C@H]2CC[C@]3(C)C(=CC(=O)[C@@]3(O)c3ccoc3)[C@@]21C` [17-HYDROXYAZADIRADIONE] has an Activity (Reticulitermes speratus [14]) of 17.8 µg, a survival at 300 µg/disc (Reticulitermes speratus [1]) of 33.5% and an Activity (Reticulitermes speratus [7]) of 16.5 µg. The Activity (Reticulitermes speratus [18]) was 80%, the Activity (Reticulitermes speratus [8]) was 9.4 µg and the PC50 (Reticulitermes speratus [2]) was 67.8 µg. It also gave a PC95 (Reticulitermes speratus [2]) of 235.6 µg, an Activity (Reticulitermes speratus [9]) of 8.6 µg and a survival at 200 µg/disc (Reticulitermes speratus [3]) of 50%. For the same molecule, the survival at 50 µg/disc (Reticulitermes speratus [4]) was 73% and the survival at 100 µg/disc (Reticulitermes speratus [5]) was 61%.

For `COC(=O)C[C@H]1[C@]2(C)C3=C(C)[C@H](c4ccoc4)C[C@@H]3O[C@@H]2[C@H](O)[C@@H]2[C@@]1(C)C(=O)C=C[C@@]2(C)O`, the Activity (Reticulitermes speratus [14]) was 16.3 µg, the Activity (Reticulitermes speratus [15]) was 25.2 µg and the Activity (Reticulitermes speratus [16]) was 10 µg. The Activity (Reticulitermes speratus [7]) was 19.9 µg, the Activity (Reticulitermes speratus [18]) was 80% and the Activity (Reticulitermes speratus [8]) was 6.4 µg. For the same molecule, the PC50 (Reticulitermes speratus [2]) was 96 µg and the PC95 (Reticulitermes speratus [2]) was 245.4 µg.

Work on `COC(=O)C[C@H]1[C@]2(C)C3=C(C)[C@H](c4ccoc4)C[C@H]3O[C@@H]2[C@H](OC(C)=O)[C@@H]2[C@]1(C)C(=O)C=C[C@@]2(C)C(=O)OC` [NIMBIN] yielded a survival at 400 µg/disc (Reticulitermes speratus [6]) of 83%, a survival at 300 µg/disc (Reticulitermes speratus [1]) of 83% and a survival at 200 µg/disc (Reticulitermes speratus [3]) of 84.5%. For the same molecule, the survival at 500 µg/disc (Reticulitermes speratus [10]) was 80.5% and the survival at 100 µg/disc (Reticulitermes speratus [5]) was 84%.

Molecule `C/C=C(/C)C(=O)O[C@H]1C[C@@H](OC(C)=O)[C@@]2(C)CO[C@H]3[C@H]4O[C@@H]5C[C@@H](c6ccoc6)C(C)=C5[C@@]4(C)[C@H](CC(=O)OC)[C@]1(C)[C@@H]32` [SALANNIN] has a survival at 75 µg/disc (Reticulitermes speratus [13]) of 29.3%, an Activity (Reticulitermes speratus [14]) of 1.8 µg and an Activity (Reticulitermes speratus [15]) of 0.8 µg. For the same molecule, the Activity (Reticulitermes speratus [16]) was 0.5 µg, the survival at 125 µg/disc (Reticulitermes speratus [17]) was 17.3% and the Activity (Reticulitermes speratus [7]) was 1.4 µg. The Activity (Reticulitermes speratus [18]) was 80%, the Activity (Reticulitermes speratus [19]) was 0.8 µg and the Activity (Reticulitermes speratus [20]) was 3.7 µg. For the same molecule, the survival at 150 µg/disc (Reticulitermes speratus [21]) was 30.7%, the survival at 25 µg/disc (Reticulitermes speratus [22]) was 90.7% and the PC50 (Reticulitermes speratus [2]) was 19.5 µg. The PC95 (Reticulitermes speratus [2]) was 203.3 µg, the survival at 50 µg/disc (Reticulitermes speratus [4]) was 58.7% and the survival at 100 µg/disc (Reticulitermes speratus [5]) was 40%.
